Laboratory results from patent publication US11117892B2, “Pyrrolo-pyridine derivative compound, method for preparing same, and pharmaceutical composition containing same as active ingredient for prevention or treatment of protein kinase-related diseases” (DAEGU-GYEONGBUK MEDICAL INNOVATION FOUNDATION, priority 2017, dated 2021).
Like-named read-outs stand apart in the source and are kept apart here.

Legend:
Test in all cases: scanMAX Kinase assay panel
Format in all cases: binding
Details in all cases: read-out: % control
ACVR1B = ACVR1B (Homo sapiens (Human), UniProt P36896)
Method in brief: (§1)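 Selectivity was measured on the scanMAX platform. The compound signal minus the positive-control signal was divided by the DMSO-minus-positive-control window and multiplied by 100.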

STK16 = STK16 (Homo sapiens (Human), UniProt O75716)
Method in brief: as §1

MARK4 = MARK4 (Homo sapiens (Human), UniProt Q96L34)
Method in brief: as §1

[1] = biological target: ABL1(H396P)-nonphosphorylated (Homo sapiens (Human), UniProt P00519, H396P)
Method in brief: as §1

PIK3CB = PIK3CB (Homo sapiens (Human), UniProt P42338)
Method in brief: as §1

HIPK4 = HIPK4 (Homo sapiens (Human), UniProt Q8NE63)
Method in brief: as §1

ADCK3 = ADCK3 (Homo sapiens (Human), UniProt Q8NI60)
Method in brief: as §1

TNK1 = TNK1 (Homo sapiens (Human), UniProt Q13470)
Method in brief: as §1

ROCK2 = ROCK2 (Homo sapiens (Human), UniProt O75116)
Method in brief: as §1

LATS2 = LATS2 (Homo sapiens (Human), UniProt Q9NRM7)
Method in brief: as §1

CDK4-cyclinD1 = CDK4-cyclinD1 (Homo sapiens (Human), UniProt P11802)
Method in brief: as §1

GCN2(Kin.Dom.2, S808G) = GCN2(Kin.Dom.2, S808G) (Homo sapiens (Human), UniProt Q9P2K8, S808G)
Method in brief: as §1

FLT3(R834Q) = FLT3(R834Q) (Homo sapiens (Human), UniProt P36888, R834Q)
Method in brief: as §1

PIK3C2G = PIK3C2G (Homo sapiens (Human), UniProt O75747)
Method in brief: as §1

PIK3CA(C420R) = PIK3CA(C420R) (Homo sapiens (Human), UniProt P42336, C420R)
Method in brief: as §1

SRMS = SRMS (Homo sapiens (Human), UniProt Q9H3Y6)
Method in brief: as §1

AKT1 = AKT1 (Homo sapiens (Human), UniProt P31749)
Method in brief: as §1

MST4 = MST4 (Homo sapiens (Human), UniProt Q9P289)
Method in brief: as §1

MST1R = MST1R (Homo sapiens (Human), UniProt Q04912)
Method in brief: as §1

GSK3A = GSK3A (Homo sapiens (Human), UniProt P49840)
Method in brief: as §1

BRSK2 = BRSK2 (Homo sapiens (Human), UniProt Q8IWQ3)
Method in brief: as §1

SGK3 = SGK3 (Homo sapiens (Human), UniProt Q96BR1)
Method in brief: as §1

EPHB6 = EPHB6 (Homo sapiens (Human), UniProt O15197)
Method in brief: as §1

PLK3 = PLK3 (Homo sapiens (Human), UniProt Q9H4B4)
Method in brief: as §1

TIE1 = TIE1 (Homo sapiens (Human), UniProt P35590)
Method in brief: as §1

[2] = biological target: EGFR(L747-S752del, P753S) (Homo sapiens (Human), UniProt P00533, DEL747-752/P753S)
Method in brief: as §1

AURKC = AURKC (Homo sapiens (Human), UniProt Q9UQB9)
Method in brief: as §1

DAPK2 = DAPK2 (Homo sapiens (Human), UniProt Q9UIK4)
Method in brief: as §1

TAOK3 = TAOK3 (Homo sapiens (Human), UniProt Q9H2K8)
Method in brief: as §1

PCTK1 = PCTK1 (Homo sapiens (Human), UniProt Q00536)
Method in brief: as §1

KIT(D816V) = KIT(D816V) (Homo sapiens (Human), UniProt P10721, D816V)
Method in brief: as §1

MST2 = MST2 (Homo sapiens (Human), UniProt Q13188)
Method in brief: as §1

MAP4K2 = MAP4K2 (Homo sapiens (Human), UniProt Q12851)
Method in brief: as §1

[3] = biological target: EGFR(L747-E749del, A750P) (Homo sapiens (Human), UniProt P00533, A750P/DEL747-749)
Method in brief: as §1

PHKG2 = PHKG2 (Homo sapiens (Human), UniProt P15735)
Method in brief: as §1

PIM2 = PIM2 (Homo sapiens (Human), UniProt Q9P1W9)
Method in brief: as §1

EGFR(L861Q) = EGFR(L861Q) (Homo sapiens (Human), UniProt P00533, L861Q)
Method in brief: as §1

DCAMKL2 = DCAMKL2 (Homo sapiens (Human), UniProt Q8N568)
Method in brief: as §1

Sequence of PIK3CB (P42338 whole entry): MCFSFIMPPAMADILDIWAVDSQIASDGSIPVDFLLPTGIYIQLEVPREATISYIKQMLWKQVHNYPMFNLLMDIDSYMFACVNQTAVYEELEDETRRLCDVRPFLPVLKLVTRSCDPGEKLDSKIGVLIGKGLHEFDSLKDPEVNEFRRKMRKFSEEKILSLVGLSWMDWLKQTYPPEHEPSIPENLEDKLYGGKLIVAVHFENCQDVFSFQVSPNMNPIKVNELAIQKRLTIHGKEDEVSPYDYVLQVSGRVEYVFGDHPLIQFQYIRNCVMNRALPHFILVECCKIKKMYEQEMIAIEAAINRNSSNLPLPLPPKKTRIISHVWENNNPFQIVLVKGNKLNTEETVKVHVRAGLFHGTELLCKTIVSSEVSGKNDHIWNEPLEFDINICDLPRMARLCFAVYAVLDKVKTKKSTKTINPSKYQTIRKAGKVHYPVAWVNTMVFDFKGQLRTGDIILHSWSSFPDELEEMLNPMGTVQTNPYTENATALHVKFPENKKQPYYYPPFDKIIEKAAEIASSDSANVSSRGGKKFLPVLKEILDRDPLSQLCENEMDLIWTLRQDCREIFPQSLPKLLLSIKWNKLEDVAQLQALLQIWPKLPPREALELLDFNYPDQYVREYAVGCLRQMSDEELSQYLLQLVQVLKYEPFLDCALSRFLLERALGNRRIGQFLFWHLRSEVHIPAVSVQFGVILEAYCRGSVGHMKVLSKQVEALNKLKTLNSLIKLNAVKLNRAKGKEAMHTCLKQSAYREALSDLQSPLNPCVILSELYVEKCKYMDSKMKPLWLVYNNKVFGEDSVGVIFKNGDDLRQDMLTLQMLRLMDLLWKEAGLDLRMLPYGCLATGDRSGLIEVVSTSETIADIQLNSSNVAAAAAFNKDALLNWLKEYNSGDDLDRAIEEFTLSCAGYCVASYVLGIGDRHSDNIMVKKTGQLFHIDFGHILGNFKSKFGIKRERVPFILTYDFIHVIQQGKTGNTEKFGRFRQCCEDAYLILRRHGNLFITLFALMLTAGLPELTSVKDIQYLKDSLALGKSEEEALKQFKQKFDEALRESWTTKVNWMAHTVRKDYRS
Sequence of GSK3A (P49840 whole entry): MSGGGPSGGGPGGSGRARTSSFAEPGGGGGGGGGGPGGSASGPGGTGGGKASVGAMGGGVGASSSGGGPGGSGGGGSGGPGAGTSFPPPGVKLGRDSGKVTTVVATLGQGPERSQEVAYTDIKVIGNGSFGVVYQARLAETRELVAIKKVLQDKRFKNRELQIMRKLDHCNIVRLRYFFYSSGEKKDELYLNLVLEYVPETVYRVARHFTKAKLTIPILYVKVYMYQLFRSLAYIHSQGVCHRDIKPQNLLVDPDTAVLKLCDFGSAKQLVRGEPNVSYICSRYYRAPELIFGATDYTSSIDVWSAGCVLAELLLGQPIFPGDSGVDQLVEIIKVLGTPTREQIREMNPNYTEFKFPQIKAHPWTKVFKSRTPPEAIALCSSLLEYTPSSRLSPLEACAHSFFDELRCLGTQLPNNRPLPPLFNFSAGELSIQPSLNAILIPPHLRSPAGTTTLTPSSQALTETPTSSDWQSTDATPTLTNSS
Sequence of DCAMKL2 (Q8N568 whole entry, looked up): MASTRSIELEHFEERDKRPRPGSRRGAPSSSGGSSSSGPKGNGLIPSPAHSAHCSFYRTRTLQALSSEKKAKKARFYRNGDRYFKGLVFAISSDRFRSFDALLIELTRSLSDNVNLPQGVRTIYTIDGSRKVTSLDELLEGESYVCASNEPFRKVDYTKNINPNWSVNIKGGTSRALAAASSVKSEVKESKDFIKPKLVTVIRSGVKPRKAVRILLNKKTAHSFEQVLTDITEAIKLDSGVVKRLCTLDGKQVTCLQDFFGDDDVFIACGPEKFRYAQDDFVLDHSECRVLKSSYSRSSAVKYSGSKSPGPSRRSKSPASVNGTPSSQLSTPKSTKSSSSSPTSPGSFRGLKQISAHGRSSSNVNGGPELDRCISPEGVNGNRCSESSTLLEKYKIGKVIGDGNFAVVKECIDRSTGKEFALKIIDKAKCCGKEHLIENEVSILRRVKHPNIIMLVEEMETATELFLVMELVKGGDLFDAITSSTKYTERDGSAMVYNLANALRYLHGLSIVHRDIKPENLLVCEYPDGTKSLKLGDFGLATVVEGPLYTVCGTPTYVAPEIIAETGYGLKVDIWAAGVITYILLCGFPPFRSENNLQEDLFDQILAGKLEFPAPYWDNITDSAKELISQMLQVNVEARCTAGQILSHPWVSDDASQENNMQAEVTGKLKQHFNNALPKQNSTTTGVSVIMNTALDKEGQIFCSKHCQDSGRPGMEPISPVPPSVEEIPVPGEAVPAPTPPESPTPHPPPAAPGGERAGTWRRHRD
Sequence of PIM2 (Q9P1W9 whole entry): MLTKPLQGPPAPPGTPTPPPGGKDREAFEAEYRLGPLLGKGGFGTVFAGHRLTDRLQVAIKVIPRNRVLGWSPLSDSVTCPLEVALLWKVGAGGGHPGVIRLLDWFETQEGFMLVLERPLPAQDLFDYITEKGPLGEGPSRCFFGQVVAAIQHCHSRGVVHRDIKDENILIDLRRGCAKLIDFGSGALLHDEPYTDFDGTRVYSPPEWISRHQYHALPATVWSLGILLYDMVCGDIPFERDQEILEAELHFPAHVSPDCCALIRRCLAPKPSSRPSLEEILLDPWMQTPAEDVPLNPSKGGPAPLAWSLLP
Sequence of LATS2 (Q9NRM7 whole entry): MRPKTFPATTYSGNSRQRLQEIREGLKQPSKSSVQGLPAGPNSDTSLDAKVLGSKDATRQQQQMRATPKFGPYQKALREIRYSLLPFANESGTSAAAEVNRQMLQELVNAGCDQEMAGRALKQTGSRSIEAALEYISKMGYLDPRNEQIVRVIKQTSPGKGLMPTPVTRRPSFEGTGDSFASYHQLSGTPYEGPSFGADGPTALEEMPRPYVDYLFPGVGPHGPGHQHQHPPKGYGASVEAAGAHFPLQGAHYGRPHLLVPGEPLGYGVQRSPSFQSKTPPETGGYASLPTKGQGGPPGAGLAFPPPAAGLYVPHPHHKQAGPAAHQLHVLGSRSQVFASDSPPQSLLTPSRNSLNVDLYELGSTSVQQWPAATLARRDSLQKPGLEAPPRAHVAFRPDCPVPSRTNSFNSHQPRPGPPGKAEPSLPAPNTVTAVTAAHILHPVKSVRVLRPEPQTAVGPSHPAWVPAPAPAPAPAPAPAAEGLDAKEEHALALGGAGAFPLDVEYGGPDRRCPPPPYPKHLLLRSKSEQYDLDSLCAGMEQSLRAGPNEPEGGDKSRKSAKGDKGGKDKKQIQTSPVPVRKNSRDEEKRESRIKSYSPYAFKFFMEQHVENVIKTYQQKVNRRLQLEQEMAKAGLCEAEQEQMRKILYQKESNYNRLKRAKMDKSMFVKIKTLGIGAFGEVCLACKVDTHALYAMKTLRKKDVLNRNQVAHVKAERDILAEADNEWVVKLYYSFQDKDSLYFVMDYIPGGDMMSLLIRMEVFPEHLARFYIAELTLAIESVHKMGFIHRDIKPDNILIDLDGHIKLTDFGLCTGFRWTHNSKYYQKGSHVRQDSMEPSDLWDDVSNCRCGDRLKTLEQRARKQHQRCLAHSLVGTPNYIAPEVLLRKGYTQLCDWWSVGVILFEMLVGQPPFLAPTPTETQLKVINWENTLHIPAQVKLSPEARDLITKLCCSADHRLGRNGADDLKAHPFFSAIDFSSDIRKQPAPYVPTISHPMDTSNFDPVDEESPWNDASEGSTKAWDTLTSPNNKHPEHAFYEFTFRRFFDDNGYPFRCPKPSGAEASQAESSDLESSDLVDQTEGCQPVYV
Sequence of MST1R (Q04912 25-1400): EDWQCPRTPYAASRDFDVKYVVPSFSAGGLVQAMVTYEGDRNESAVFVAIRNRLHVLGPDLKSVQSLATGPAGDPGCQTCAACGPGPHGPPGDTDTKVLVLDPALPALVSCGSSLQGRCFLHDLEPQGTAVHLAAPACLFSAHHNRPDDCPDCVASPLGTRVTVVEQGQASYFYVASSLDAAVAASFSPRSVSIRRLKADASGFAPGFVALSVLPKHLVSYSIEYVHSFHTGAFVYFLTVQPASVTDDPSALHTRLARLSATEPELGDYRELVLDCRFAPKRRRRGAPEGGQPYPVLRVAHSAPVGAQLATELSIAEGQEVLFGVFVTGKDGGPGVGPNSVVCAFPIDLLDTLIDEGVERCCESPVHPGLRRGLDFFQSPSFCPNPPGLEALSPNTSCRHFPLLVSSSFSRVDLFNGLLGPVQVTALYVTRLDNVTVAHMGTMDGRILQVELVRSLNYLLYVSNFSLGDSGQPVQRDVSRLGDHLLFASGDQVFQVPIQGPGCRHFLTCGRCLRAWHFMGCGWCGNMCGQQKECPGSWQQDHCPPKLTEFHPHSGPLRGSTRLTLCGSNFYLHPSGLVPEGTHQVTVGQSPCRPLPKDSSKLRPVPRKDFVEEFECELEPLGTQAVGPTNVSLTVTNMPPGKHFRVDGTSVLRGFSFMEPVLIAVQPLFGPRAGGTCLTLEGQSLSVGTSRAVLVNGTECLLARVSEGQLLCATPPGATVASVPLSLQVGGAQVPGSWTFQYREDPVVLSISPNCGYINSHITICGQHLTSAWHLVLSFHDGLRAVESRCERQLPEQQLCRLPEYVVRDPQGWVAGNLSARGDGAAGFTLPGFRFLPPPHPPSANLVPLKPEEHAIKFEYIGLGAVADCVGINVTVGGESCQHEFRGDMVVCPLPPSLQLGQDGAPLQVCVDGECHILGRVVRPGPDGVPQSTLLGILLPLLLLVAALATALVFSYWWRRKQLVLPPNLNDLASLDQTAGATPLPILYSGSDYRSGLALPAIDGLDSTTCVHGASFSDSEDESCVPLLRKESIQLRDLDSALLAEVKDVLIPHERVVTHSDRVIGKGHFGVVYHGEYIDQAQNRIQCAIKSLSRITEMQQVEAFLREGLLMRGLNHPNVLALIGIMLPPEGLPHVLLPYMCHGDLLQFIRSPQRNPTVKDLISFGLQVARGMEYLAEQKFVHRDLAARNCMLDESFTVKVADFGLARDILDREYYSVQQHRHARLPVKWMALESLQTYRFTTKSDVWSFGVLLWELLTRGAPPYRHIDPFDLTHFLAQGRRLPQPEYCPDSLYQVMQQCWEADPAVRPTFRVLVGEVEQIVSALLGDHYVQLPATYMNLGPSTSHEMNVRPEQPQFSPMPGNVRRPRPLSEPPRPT

Compound	remaining binding at 1 µM (ACVR1B) [%]	remaining binding at 1 µM (STK16) [%]	remaining binding at 1 µM (MARK4) [%]	remaining binding at 1 µM [1] [%]	remaining binding at 1 µM (PIK3CB) [%]	remaining binding at 1 µM (HIPK4) [%]	remaining binding at 1 µM (ADCK3) [%]	remaining binding at 1 µM (TNK1) [%]	remaining binding at 1 µM (ROCK2) [%]	remaining binding at 1 µM (LATS2) [%]	remaining binding at 1 µM (CDK4-cyclinD1) [%]	remaining binding at 1 µM (GCN2(Kin.Dom.2, S808G)) [%]	remaining binding at 1 µM (FLT3(R834Q)) [%]	remaining binding at 1 µM (PIK3C2G) [%]	remaining binding at 1 µM (PIK3CA(C420R)) [%]	remaining binding at 1 µM (SRMS) [%]	remaining binding at 1 µM (AKT1) [%]	remaining binding at 1 µM (MST4) [%]	remaining binding at 1 µM (MST1R) [%]	remaining binding at 1 µM (BRSK2) [%]	further results
CCNc1cc(Nc2ccc(C(=O)N3CCC(N4CCOCC4)CC3)cc2OC)nc2[nH]cc(C#N)c12 [Example 18, 4-(ethylamino)-6-((2-methoxy-4-(4-morpholinopiperidine-1-carbonyl)phenyl)amino)-1H-pyrrolo[2,3-b]pyridine-3-carbonitrile]	88	60	80	89	89	100	86	81	7.8	26	100	97	92	92	87	80	100	81	81	96	remaining binding at 1 µM (GSK3A; GSK3A, 1 uM): 100%; remaining binding at 1 µM (SGK3): 79%; remaining binding at 1 µM (EPHB6): 78%; remaining binding at 1 µM (PLK3): 79%; remaining binding at 1 µM (TIE1): 88%; remaining binding at 1 µM [2]: 92%; remaining binding at 1 µM (AURKC): 92%; remaining binding at 1 µM (DAPK2): 16%; remaining binding at 1 µM (TAOK3): 94%; remaining binding at 1 µM (PCTK1): 98%; remaining binding at 1 µM (KIT(D816V)): 82%; remaining binding at 1 µM (MST2): 95%; remaining binding at 1 µM (MAP4K2): 61%; remaining binding at 1 µM [3]: 100%; remaining binding at 1 µM (PHKG2): 12%; remaining binding at 1 µM (PIM2): 96%; remaining binding at 1 µM (EGFR(L861Q)): 85%; remaining binding at 1 µM (DCAMKL2): 77%
CCNc1cc(Nc2ccc(C(=O)N3CCC(N4CCOCC4)CC3)cc2OC)nc2[nH]cc(C(F)(F)F)c12 [Example 57, (4-((4-(ethylamino)-3-(trifluoromethyl)-1H-pyrrolo[2,3-b]pyridin-6-yl)amino)-3-methoxyphenyl) (4-morpholinopiperidin-1-yl)methanone]	82	64	76	68	100	86	89	100	100	100	95	91	100	100	100	96	97	100	70	79	remaining binding at 1 µM (GSK3A): 90%; remaining binding at 1 µM (SGK3): 100%; remaining binding at 1 µM (EPHB6): 99%; remaining binding at 1 µM (PLK3): 98%; remaining binding at 1 µM (TIE1): 100%; remaining binding at 1 µM [2]: 97%; remaining binding at 1 µM (AURKC): 95%; remaining binding at 1 µM (DAPK2): 71%; remaining binding at 1 µM (TAOK3): 100%; remaining binding at 1 µM (PCTK1): 83%; remaining binding at 1 µM (KIT(D816V)): 83%; remaining binding at 1 µM (MST2): 100%; remaining binding at 1 µM (MAP4K2): 100%; remaining binding at 1 µM [3]: 94%; remaining binding at 1 µM (PHKG2): 23%; remaining binding at 1 µM (PIM2): 98%; remaining binding at 1 µM (EGFR(L861Q)): 94%; remaining binding at 1 µM (DCAMKL2): 79%
